The record followed here is US9278134B2, “Dual functioning ionic liquids and salts thereof” (priority 2008, dated 2016).

A short description of the first series: Thermocleavage of ionic liquid immobilized fragrance by TGA. It counts as physicochemical. Particulars: TGA (FIG. 6).
Turning to `CC(C)=CCC/C(C)=C/COC(=O)Cn1cc[n+](C)c1` [Example 44, (E)-1-(2-(3,7-dimethylocta-2,6-dienyloxy)-2-oxoethyl)-3-methyl-1H-imidazol-3-ium Docusate], the “Thermocleavage, first decomposition step (release of geraniol)” value was “Mass loss of the first decomposition step obtained corresponds to mass percentage of Geraniol [1] in the prodrug [4]”.

A further series is described as follows: Thermal decomposition onset (T5% onset) by TGA.
Details: not given
Consider `CCCCC(CC)COC(=O)CC(C(=O)OCC(CC)CCCC)S(=O)(=O)[O-].CCCC[P+](CCO)(CCCC)CCCC` (centres unmarked) [Example 66, Tributylhydroxyethylphosphonium Docusate], for which the T5%onset was 280 °C.

As to `COc1cccc(C2(O)CCCCC2CN(C)C)c1.O=C(O)c1ccccc1O` (centres unmarked) [Example 47, Tramadolium Salicylate], the T5%onset worked out at 220 °C.

In turn, `COc1cccc(C2(O)CCCCC2CN(C)C)c1.Cc1ccc(Cl)c(Nc2ccccc2C(=O)O)c1Cl` (centres unmarked) [Example 50, Tramadolium Meclofenamate] yielded a T5%onset of 172 °C.

Molecule `CN[C@@H](C)[C@H](O)c1ccccc1.O=C(O)c1ccccc1O` [Eph:Sal 1:1, Ephedrinium Salicylate] showed a T5%onset of 161 °C.

Take `CC(=O)Nc1ccc(OC(=O)C[N+]2(C)CCCC2)cc1.CC(O)C(=O)O` [Example 40, 1-(2-(4-acetamidophenoxy)-2-oxoethyl)-1-methylpyrrolidinium Lactate]: the T5%onset turned out to be 166 °C.

Molecule `CC(C)=CCC/C(C)=C/COC(=O)Cn1cc[n+](C)c1` [Example 43, (E)-1-(2-(3,7-dimethylocta-2,6-dienyloxy)-2-oxoethyl)-3-methyl-1H-imidazol-3-ium Chloride] displayed a T5%onset of 125 °C.

In the case of `CCCCC(CC)COC(=O)CC(C(=O)OCC(CC)CCCC)S(=O)(=O)O.CN[C@@H](C)[C@H](O)c1ccccc1` (centres unmarked) [Example 59, Ephedrinium Docusate], the T5%onset came out at 238 °C.

`CC(=O)Nc1ccc(OC(=O)Cn2cc[n+](C)c2)cc1` [Example 31, 1-(2-(4-acetamidophenoxy)-2-oxoethyl)-3-methyl-1H-imidazol-3-ium Chloride] returned a T5%onset of 200 °C.

“Cetylpyridinium Salicylate-cinnamate [CetPySalCinnH]” showed a T5%onset of 162 °C.

The molecule Caffeine Salicylate [Example 13] registered a T5%onset of 111 °C.

As for `CC(C)Cc1ccc(C(C)C(=O)[O-])cc1.CCCC[P+](CCCC)(CCCC)CCCC` [P(Bu)4Ibu 1:1, Tetrabutylphosphonium Ibuprofenate], the T5%onset was 234 °C.

Regarding `CCN(CC)CC(=O)Nc1c(C)cccc1C.O=C(O)c1ccccc1O` [Lid:Sal 1:1, Lidocainium Salicylate], the T5%onset worked out at 161 °C.

In turn, `CC(C)=CCC/C(C)=C/COC(=O)CCC(=O)O` [Example 46, 2-Hydroxy-N,N,N-trimethylethanaminium (E)-4-(3,7-dimethylocta-2,6-dienyloxy)-4-oxobutanoate] returned a T5%onset of 170 °C.

Molecule “Triethanolammonium Ibuprofenate [Example 64]” displayed a T5%onset of 163 °C.

As to `CCN(CC)CC(=O)Nc1c(C)cccc1C.COc1cccc(C2(O)CCCCC2CN(C)C)c1.O=C(O)c1ccccc1O` (centres unmarked) [Example 26, Tramadolium-lidocaine Salicylate], the T5%onset came out at 181 °C.

With `CC(C)(Oc1ccc(Cl)cc1)C(=O)O.CN[C@@H](C)[C@H](O)c1ccccc1` [Eph:Clofib 1:1, Ephedrinium Clofibrate], the T5%onset is 166 °C.

The molecule `CC(=O)Nc1ccc(OC(=O)C[n+]2ccccc2)cc1` [Example 33, 1-(2-(4-acetamidophenoxy)-2-oxoethyl)pyridinium Chloride] yielded a T5%onset of 198 °C.

`CCN(CC)CCNC(=O)c1ccc(N)cc1.O=C(O)c1ccccc1O` [Example 61, Procainamide Salicylate] had a T5%onset of 199 °C.

With Benzethonium Salicylate [Example 53], the T5%onset was found to be 180 °C.

As to `CC(CN1c2ccccc2Sc2ccccc21)N(C)C.CCCCC(CC)COC(=O)CC(C(=O)OCC(CC)CCCC)S(=O)(=O)O` (centres unmarked) [Example 60, Promethazine Docusate], the T5%onset stood at 246 °C.

In turn, `CCCCC(CC)COC(=O)CC(C(=O)OCC(CC)CCCC)S(=O)(=O)O.CCN(CC)CCNC(=O)c1ccc(N)cc1` (centres unmarked) [Example 63, Procainamide Docusate] showed a T5%onset of 231 °C.

Molecule `CCCC[PH](CCCC)(CCCC)CC(=O)Oc1ccc(NC(C)=O)cc1` [Example 38, (2-(4-acetamidophenoxy)-2-oxoethyl)tributylphosphonium Docusate] gave a T5%onset of 227 °C.

Turning to `CCCCCCCCCCCCCCCC[n+]1ccccc1` [CetPy:Sal 1:1, Cetylpyridinium Salicylate], the T5%onset came out at 206 °C.

For the molecule `CC(C)Cc1ccc(C(C)C(=O)O)cc1.CN[C@@H](C)[C@H](O)c1ccccc1` (centres unmarked) [Example 57, Ephedrinium Ibuprofenate], the T5%onset was 238 °C.

As for `CC(=O)Nc1ccc(OC(=O)C[n+]2ccccc2)cc1` [Example 37, 1-(2-(4-acetamidophenoxy)-2-oxoethyl)pyridinium Docusate], the T5%onset is 238 °C.

Regarding `CCN(CC)CC(=O)Nc1c(C)cccc1C.CN[C@@H](C)[C@H](O)c1ccccc1.O=C(O)c1ccccc1O` [Example 23, Ephedrinium-lidocaine Salicylate], the T5%onset was 149 °C.

`CC(CN1c2ccccc2Sc2ccccc21)N(C)C.CCCCC(CC)COC(=O)CC(C(=O)OCC(CC)CCCC)S(=O)(=O)O.CN[C@@H](C)[C@H](O)c1ccccc1` (centres unmarked) [Example 27, Promethazine-ephedrinium Docusate 1:1:1] showed a T5%onset of 164 °C.

Molecule `CCCC[P+](CCCC)(CCCC)CC(=O)Oc1ccc(NC(C)=O)cc1` [Example 34, (2-(4-acetamidophenoxy)-2-oxoethyl)tributylphosphonium Chloride] gave a T5%onset of 197 °C.

As for `CC(=O)Nc1ccc(OC(=O)C[N+]2(C)CCCC2)cc1` [Example 36, 1-(2-(4-acetamidophenoxy)-2-oxoethyl)-1-methylpyrrolidinium Docusate], the T5%onset worked out at 233 °C.

With `CCCCC(CC)COC(=O)CC(C(=O)OCC(CC)CCCC)S(=O)(=O)O.COc1cccc(C2(O)CCCCC2CN(C)C)c1` (centres unmarked) [Example 51, Tramadolium Docusate], the T5%onset came to 226 °C.

`CC(CN1c2ccccc2Sc2ccccc21)N(C)C.CN[C@@H](C)[C@H](O)c1ccccc1.O=C(O)c1ccccc1O` (centres unmarked) [Example 29, Promethazine-ephedrinium Salicylate] returned a T5%onset of 151 °C.

The molecule `CC(=O)Nc1ccc(OC(=O)C[N+]2(C)CCCC2)cc1` [Example 32, 1-(2-(4-acetamidophenoxy)-2-oxoethyl)-1-methylpyrrolidinium Chloride] registered a T5%onset of 197 °C.

In turn, `CC(C)=CCC/C(C)=C/COC(=O)Cn1cc[n+](C)c1` [Example 44, (E)-1-(2-(3,7-dimethylocta-2,6-dienyloxy)-2-oxoethyl)-3-methyl-1H-imidazol-3-ium Docusate] returned a T5%onset of 170 °C.

With Choline Docusate [Example 67], the T5%onset was 189 °C.

Molecule `CC(C)Cc1ccc(C(C)C(=O)O)cc1.COc1cccc(C2(O)CCCCC2CN(C)C)c1` (racemic) [Example 48, Tramadolium rac-ibuprofenate] showed a T5%onset of 175 °C.

For `CC(C)Cc1ccc(C(C)C(=O)O)cc1.CCN(CC)CCNC(=O)c1ccc(N)cc1` [Example 62, Procainamide Ibuprofenate], the T5%onset amounted to 182 °C.

The series is the same for the next values; noted with them: TGA/DSC, 25° C. to 600° C. with 5° C./min under nitrogen; cetylpyridinium salicylate-salicylic acid co-ionic liquids.
Take “Cetylpyridinium Salicylate-salicylic Acid [CetPy:Sal 1:2]”: the T5%onset was found to be 184 °C.

Consider “Cetylpyridinium Salicylate-salicylic Acid [CetPy:Sal 1:3]”, for which the T5%onset was found to be 162 °C.

Regarding `CCCCCCCCCCCCCCCC[n+]1ccccc1` [CetPy:Sal 1:1, Cetylpyridinium Salicylate], the T5%onset came out at 206 °C.

Still in this series, the particulars now being: TGA/DSC, 25° C. to 600° C. with 5° C./min under nitrogen; choline salicylate-salicylic acid co-ionic liquids.
As for `C[N+](C)(C)CCO.O=C([O-])c1ccccc1O` [Cho:Sal 1:1, choline salicylate], the T5%onset was determined as 203 °C.

The series is the same for the next values; noted with them: TGA/DSC, 25° C. to 600° C. with 5° C./min under nitrogen; ephedrinium clofibrate co-ionic liquids prepared by melting.
Take Ephedrinium Clofibrate [Eph:Clofib 1:2]: the “Tonset 5%” value came out at 182 °C.

As for `CC(C)(Oc1ccc(Cl)cc1)C(=O)O.CN[C@@H](C)[C@H](O)c1ccccc1` [Eph:Clofib 1:1, Ephedrinium Clofibrate], the “Tonset 5%” value was 169 °C.

As for `CC(C)(Oc1ccc(Cl)cc1)C(=O)O.CN[C@@H](C)[C@H](O)c1ccccc1.CN[C@@H](C)[C@H](O)c1ccccc1` [Eph:Clofib 2:1, Ephedrinium Clofibrate], the “Tonset 5%” value was 135 °C.

The same series, now with this note: TGA/DSC, 25° C. to 600° C. with 5° C./min under nitrogen; lidocaine salicylate co-ionic liquids.
Turning to Lidocaine Salicylates [Lid:Sal 1:2.5], the “Tonset 5%” value was determined as 132 °C.

In the case of Lidocaine Salicylates [Lid:Sal 3:1], the “Tonset 5%” value turned out to be 161 °C.

With `CCN(CC)CC(=O)Nc1c(C)cccc1C` [Lid, lidocaine, reference compound], the “Tonset 5%” value is 152 °C.

For the molecule Lidocaine Salicylates [Lid:Sal 1:2], the “Tonset 5%” value turned out to be 138 °C.

For `CCN(CC)CC(=O)Nc1c(C)cccc1C.O=C(O)c1ccccc1O` [Lid:Sal 1:1, Lidocainium Salicylate], the “Tonset 5%” value is 161 °C.

For Lidocaine Salicylates [Lid:Sal 1:1.5], the “Tonset 5%” value amounted to 142 °C.

Lidocaine Salicylates [Lid:Sal 1:3]: the “Tonset 5%” value turned out to be 128 °C.

With `O=C(O)c1ccccc1O` [Salicylic acid, reference compound], the “Tonset 5%” value was found to be 134 °C.

Regarding Lidocaine Salicylates [Lid:Sal 2.5:1], the “Tonset 5%” value was determined as 137 °C.

Consider Lidocaine Salicylates [Lid:Sal 2:1], for which the “Tonset 5%” value worked out at 154 °C.

For the molecule Lidocaine Salicylates [Lid:Sal 1.5:1], the “Tonset 5%” value was 169 °C.

Still in this series, the particulars now being: TGA/DSC, 25° C. to 600° C. with 5° C./min under nitrogen; tetrabutylphosphonium ibuprofenate-ibuprofenic co-ionic liquids.
Turning to `CC(C)Cc1ccc(C(C)C(=O)[O-])cc1.CCCC[P+](CCCC)(CCCC)CCCC` [P(Bu)4Ibu 1:1, Tetrabutylphosphonium Ibuprofenate], the T5%onset was determined as 234 °C.

The series is the same for the next values; noted with them: TGA/DSC, 25° C. to 600° C. with 5° C./min under nitrogen; tetrabutylphosphonium lactate-lactic acid co-ionic liquids.
For `CCCC[P+](CCCC)(CCCC)CCCC` [P(Bu)4Lac 1:1, tetrabutylphosphonium lactate], the T5%onset was determined as 262.

`CCCC[P+](CCCC)(CCCC)CCCC` [P(Bu)4Lac 1:2, Tetrabutylphosphonium Lactate-lactic Acid] yielded a T5%onset of 215.

The series is the same for the next values; noted with them: TGA/DSC, 25° C. to 600° C. with 5° C./min under nitrogen; tetrabutylphosphonium salicylate-salicylic acid co-ionic liquids.
On to `O=C(O)c1ccccc1O` [Salicylic acid, reference compound], for which the T5%onset was found to be 136 °C.
